From ChEMBL document CHEMBL4308841, “Synthesis, in vitro antiproliferative activity, and kinase inhibitory effects of pyrazole-containing diarylureas and diarylamides” (Eur J Med Chem, 2018)

Experiments:
SF-539 = assay: Growth inhibition of human SF539 cells incubated for 48 hrs by sulforhodamine B assay; assay type: functional, cell-based; details: SF-539, 48 h
SF-295 [1] = assay: Growth inhibition of human SF295 cells assessed as cell growth at 1 uM incubated for 48 hrs by sulforhodamine B assay relative to control; assay type: functional; details: SF-295, 48 h, read-out: Activity
PC-3 = assay: Growth inhibition of human PC3 cells assessed as cell growth at 100 uM incubated for 48 hrs by sulforhodamine B assay relative to control; assay type: functional; details: PC-3, 48 h, read-out: Activity
SR = assay: Growth inhibition of human SR cells assessed as cell growth at 0.01 uM incubated for 48 hrs by sulforhodamine B assay relative to control; assay type: functional; details: read-out: Activity
HCC 2998 = assay: Growth inhibition of human HCC2998 cells assessed as cell growth at 0.01 uM incubated for 48 hrs by sulforhodamine B assay relative to control; assay type: functional; details: HCC 2998, 48 h, read-out: Activity
HCT-116 = assay: Growth inhibition of human HCT116 cells assessed as cell growth at 0.1 uM incubated for 48 hrs by sulforhodamine B assay relative to control; assay type: functional; details: HCT-116, 48 h, read-out: Activity
Hs-578T = assay: Growth inhibition of human Hs578T cells assessed as cell growth at 1 uM incubated for 48 hrs by sulforhodamine B assay relative to control; assay type: functional; details: read-out: Activity
MCF7 = assay: Growth inhibition of human MCF7 cells incubated for 48 hrs by sulforhodamine B assay; assay type: functional, cell-based; details: MCF7, 48 h
BT-549 = assay: Growth inhibition of human BT549 cells assessed as cell growth at 1 uM incubated for 48 hrs by sulforhodamine B assay relative to control; assay type: functional; details: BT-549, 48 h, read-out: Activity
HCT-15 [2] = assay: Growth inhibition of human HCT15 cells assessed as cell growth at 1 uM incubated for 48 hrs by sulforhodamine B assay relative to control; assay type: functional; details: HCT-15, 48 h, read-out: Activity
SNB-75 = assay: Growth inhibition of human SNB75 cells assessed as cell growth at 100 uM incubated for 48 hrs by sulforhodamine B assay relative to control; assay type: functional; details: SNB-75, 48 h, read-out: Activity
786-0 = assay: Growth inhibition of human 786-0 cells assessed as cell growth at 100 uM incubated for 48 hrs by sulforhodamine B assay relative to control; assay type: functional; details: 786-0, 48 h, read-out: Activity
RPMI-8226 = assay: Growth inhibition of human RPMI8226 cells assessed as cell growth at 1 uM incubated for 48 hrs by sulforhodamine B assay relative to control; assay type: functional; details: RPMI-8226, 48 h, read-out: Activity
DU-145 = assay: Growth inhibition of human DU145 cells incubated for 48 hrs by sulforhodamine B assay; assay type: functional, cell-based; details: DU-145, 48 h
SF-268 [3] = assay: Growth inhibition of human SF268 cells assessed as cell growth at 1 uM incubated for 48 hrs by sulforhodamine B assay relative to control; assay type: functional; details: SF-268, 48 h, read-out: Activity
UACC-257 = assay: Growth inhibition of human UACC257 cells assessed as cell growth at 0.1 uM incubated for 48 hrs by sulforhodamine B assay relative to control; assay type: functional; details: UACC-257, 48 h, read-out: Activity
OVCAR-3 [4] = assay: Growth inhibition of human OVCAR3 cells assessed as cell growth at 0.1 uM incubated for 48 hrs by sulforhodamine B assay relative to control; assay type: functional; details: OVCAR-3, 48 h, read-out: Activity
U-251 = assay: Growth inhibition of human U251 cells assessed as cell growth at 1 uM incubated for 48 hrs by sulforhodamine B assay relative to control; assay type: functional; details: U-251, 48 h, read-out: Activity
NCI-H460 = assay: Growth inhibition of human NCI-H460 cells assessed as cell growth at 0.1 uM incubated for 48 hrs by sulforhodamine B assay relative to control; assay type: functional; details: NCI-H460, 48 h, read-out: Activity
T47D = assay: Growth inhibition of human T47D cells assessed as cell growth at 0.01 uM incubated for 48 hrs by sulforhodamine B assay relative to control; assay type: functional; details: read-out: Activity
HT-29 = assay: Growth inhibition of human HT-29 cells assessed as cell growth at 0.01 uM incubated for 48 hrs by sulforhodamine B assay relative to control; assay type: functional; details: HT-29, 48 h, read-out: Activity
HOP-62 = assay: Growth inhibition of human HOP62 cells assessed as cell growth at 1 uM incubated for 48 hrs by sulforhodamine B assay relative to control; assay type: functional; details: HOP-62, 48 h, read-out: Activity
NCI-H522 = assay: Growth inhibition of human NCI-H522 cells assessed as cell growth at 10 uM incubated for 48 hrs by sulforhodamine B assay relative to control; assay type: functional; details: NCI-H522, 48 h, read-out: Activity
HCT-15 [5] = assay: Growth inhibition of human HCT15 cells assessed as cell growth at 100 uM incubated for 48 hrs by sulforhodamine B assay relative to control; assay type: functional; details: HCT-15, 48 h, read-out: Activity
M14 = assay: Growth inhibition of human M14 cells assessed as cell growth at 100 uM incubated for 48 hrs by sulforhodamine B assay relative to control; assay type: functional; details: M14, 48 h, read-out: Activity
NCI-H226 = assay: Growth inhibition of human NCI-H226 cells assessed as cell growth at 0.1 uM incubated for 48 hrs by sulforhodamine B assay relative to control; assay type: functional; details: NCI-H226, 48 h, read-out: Activity
UO-31 = assay: Growth inhibition of human UO31 cells assessed as cell growth at 100 uM incubated for 48 hrs by sulforhodamine B assay relative to control; assay type: functional; details: UO-31, 48 h, read-out: Activity
OVCAR-3 [6] = assay: Growth inhibition of human OVCAR3 cells assessed as cell growth at 100 uM incubated for 48 hrs by sulforhodamine B assay relative to control; assay type: functional; details: OVCAR-3, 48 h, read-out: Activity
COLO 205 = assay: Growth inhibition of human COLO205 cells assessed as cell growth at 100 uM incubated for 48 hrs by sulforhodamine B assay relative to control; assay type: functional; details: COLO 205, 48 h, read-out: Activity
SF-268 [7] = assay: Growth inhibition of human SF268 cells assessed as cell growth at 0.1 uM incubated for 48 hrs by sulforhodamine B assay relative to control; assay type: functional; details: SF-268, 48 h, read-out: Activity
SF-295 [8] = assay: Growth inhibition of human SF295 cells incubated for 48 hrs by sulforhodamine B assay; assay type: functional, cell-based; details: SF-295, 48 h
[9] = read-out: LC50 (the source's name)
[10] = read-out: pLC50 (the source's name) (converted)

For `COc1cc(Cl)cc(-c2nn(-c3cccc(NC(=O)Nc4cc(C(F)(F)F)cc(C(F)(F)F)c4)c3)cc2-c2ccncc2)c1`, the IC50 (SF-539) was 1.41 µM, the CC50 (SF-539; [9]) was 0.055 µM and the TGI (SF-539; read-out: TGI) was 3.49 µM. For the same molecule, the GI50 (SF-539; read-out: pGI50 (converted)) was 1.41 µM, the CC50 (SF-539; [10]) was 8.71 µM and the TGI (SF-539; read-out: pTGI (converted)) was 3.55 µM. The growth at 1 µM (SF-295 [1]) was 12%, the growth at 100 µM (PC-3) was -44% and the growth at 0.01 µM (SR) was 101%. The growth at 0.01 µM (HCC 2998) was 95%, the growth at 0.1 µM (HCT-116) was 97% and the growth at 1 µM (Hs-578T) was 50%. The IC50 (MCF7) was 0.38 µM, the GI50 (MCF7; read-out: GI50) was 0.354 µM and the LC50 (MCF7; read-out: LC50) was greater than 100 µM. The TGI (MCF7; read-out: TGI) was 9.32 µM, the GI50 (MCF7; read-out: pGI50 (converted)) was 0.38 µM and the LC50 (MCF7; read-out: pLC50 (converted)) was greater than 100 µM. The TGI (MCF7; read-out: pTGI (converted)) was 9.33 µM, the growth at 1 µM (BT-549) was 54% and the growth at 1 µM (HCT-15 [2]) was 17%. The growth at 100 µM (SNB-75) was -58%, the growth at 100 µM (786-0) was -70% and the growth at 1 µM (RPMI-8226) was -12%. For the same molecule, the IC50 (DU-145) was 0.47 µM, the GI50 (DU-145; read-out: GI50) was 0.459 µM and the TGI (DU-145; read-out: TGI) was 10.6 µM. The GI50 (DU-145; read-out: pGI50 (converted)) was 0.468 µM, the CC50 (DU-145; [10]) was 38.9 µM and the TGI (DU-145; read-out: pTGI (converted)) was 10.7 µM. It also gave a growth at 1 µM (SF-268 [3]) of 37%, a growth at 0.1 µM (UACC-257) of 94% and a growth at 0.1 µM (OVCAR-3 [4]) of 95%. For the same molecule, the growth at 1 µM (U-251) was 11%, the growth at 0.1 µM (NCI-H460) was 101% and the growth at 0.01 µM (T47D) was 96%. It also gave a growth at 0.01 µM (HT-29) of 102%, a growth at 1 µM (HOP-62) of 40% and a growth at 10 µM (NCI-H522) of -15.6%. It also gave a growth at 100 µM (HCT-15 [5]) of -83%, a growth at 100 µM (M14) of -82% and a growth at 0.1 µM (NCI-H226) of 102%. For the same molecule, the growth at 100 µM (UO-31) was -82%, the growth at 100 µM (OVCAR-3 [6]) was -81% and the growth at 100 µM (COLO 205) was -68%. It also gave a growth at 0.1 µM (SF-268 [7]) of 99%, an IC50 (SF-295 [8]) of 0.33 µM and a GI50 (SF-295 [8]; read-out: GI50) of 0.332 µM. The CC50 (SF-295 [8]; [9]) was 0.0637 µM, the TGI (SF-295 [8]; read-out: TGI) was 1.44 µM and the GI50 (SF-295 [8]; read-out: pGI50 (converted)) was 0.331 µM. The CC50 (SF-295 [8]; [10]) was 6.31 µM and the TGI (SF-295 [8]; read-out: pTGI (converted)) was 1.45 µM.
Molecule `O=C(Nc1cccc(-n2cc(-c3ccncc3)c(-c3cc(O)cc(Cl)c3)n2)c1)c1cc(C(F)(F)F)cc(C(F)(F)F)c1` has a GI50 (SF-539; read-out: GI50) of 5.01 µM, a CC50 (SF-539; [9]) greater than 100 µM and a TGI (SF-539; read-out: TGI) of 51.7 µM. For the same molecule, the GI50 (SF-539; read-out: pGI50 (converted)) was 5.01 µM, the CC50 (SF-539; [10]) was greater than 100 µM and the TGI (SF-539; read-out: pTGI (converted)) was 51.3 µM. For the same molecule, the growth at 1 µM (SF-295 [1]) was 59%, the growth at 100 µM (PC-3) was -8% and the growth at 0.01 µM (SR) was 94%. For the same molecule, the growth at 0.01 µM (HCC 2998) was 94%, the growth at 0.1 µM (HCT-116) was 100% and the growth at 1 µM (Hs-578T) was 92%. The GI50 (MCF7; read-out: GI50) was 2.55 µM, the LC50 (MCF7; read-out: LC50) was greater than 100 µM and the TGI (MCF7; read-out: TGI) was greater than 100 µM. The GI50 (MCF7; read-out: pGI50 (converted)) was 2.88 µM, the LC50 (MCF7; read-out: pLC50 (converted)) was greater than 100 µM and the TGI (MCF7; read-out: pTGI (converted)) was greater than 100 µM. The growth at 1 µM (BT-549) was 101%, the growth at 1 µM (HCT-15 [2]) was 79% and the growth at 100 µM (SNB-75) was 15%. It also gave a growth at 100 µM (786-0) of -28%, a growth at 1 µM (RPMI-8226) of 53% and a GI50 (DU-145; read-out: GI50) of 5.1 µM. The CC50 (DU-145; [9]) was greater than 100 µM, the TGI (DU-145; read-out: TGI) was greater than 100 µM and the GI50 (DU-145; read-out: pGI50 (converted)) was 5.25 µM. For the same molecule, the CC50 (DU-145; [10]) was greater than 100 µM, the TGI (DU-145; read-out: pTGI (converted)) was greater than 100 µM and the growth at 1 µM (SF-268 [3]) was 94%. For the same molecule, the growth at 0.1 µM (UACC-257) was 98%, the growth at 0.1 µM (OVCAR-3 [4]) was 102% and the growth at 1 µM (U-251) was 53%. The growth at 0.1 µM (NCI-H460) was 100%, the growth at 0.01 µM (T47D) was 102% and the growth at 0.01 µM (HT-29) was 96%. It also gave a growth at 1 µM (HOP-62) of 100%, a growth at 10 µM (NCI-H522) of 17.8% and a growth at 100 µM (HCT-15 [5]) of -47%. It also gave a growth at 100 µM (M14) of 5%, a growth at 0.1 µM (NCI-H226) of 95% and a growth at 100 µM (UO-31) of 13%. The growth at 100 µM (OVCAR-3 [6]) was -10%, the growth at 100 µM (COLO 205) was -7% and the growth at 0.1 µM (SF-268 [7]) was 95%. The GI50 (SF-295 [8]; read-out: GI50) was 2.37 µM, the CC50 (SF-295 [8]; [9]) was greater than 100 µM and the TGI (SF-295 [8]; read-out: TGI) was 71.5 µM. For the same molecule, the GI50 (SF-295 [8]; read-out: pGI50 (converted)) was 2.4 µM, the CC50 (SF-295 [8]; [10]) was greater than 100 µM and the TGI (SF-295 [8]; read-out: pTGI (converted)) was 7.08 µM.
